Patent publication US20180099931A1 (AbbVie S.à.r.l., priority 2016, published 2018)
Like-named read-outs stand apart in the source and are kept apart here.

Biological target: T1, F508delCFTR (Homo sapiens, UniProt P13569, DEL508-508)
T1 construct: expressed in transfected cells; host or cells: CFBE41o- human lung-derived epithelial cells (CFBE4lo-F508delCFTR-HRP), doxycycline-inducible
Experiment: Cell Surface Expression-Horse Radish Peroxidase (CSE-HRP) Assay;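 on Maximum % activity (with co-corrector): co-corrector and positive control are both the same reference corrector at 2 µM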;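 on Maximum % activity (without co-corrector): percent of the 2 µM on-plate positive control corrector response above DMSO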
Assay type: cell-based
Details: for Emax: read-out: Maximum % activity (without co-corrector)

[1] = test compound without co-corrector, maximum at any tested concentration, normalized to on-plate positive control
[2] = test compound without co-corrector, read-out: EC50 (without co-corrector)
[3] = with co-corrector (2 μM of 3-[(2R,4R)-4-({[1-(2,2-difluoro-1,3-benzodioxol-5-yl)cyclopropyl]carbonyl}amino)-7-methoxy-3,4-dihydro-2H-chromen-2-yl]benzoic acid), maximum at any tested concentration, normalized to on-plate positive control
[4] = with co-corrector (2 μM of 3-[(2R,4R)-4-({[1-(2,2-difluoro-1,3-benzodioxol-5-yl)cyclopropyl]carbonyl}amino)-7-methoxy-3,4-dihydro-2H-chromen-2-yl]benzoic acid), read-out: EC50 (with co-corrector)
[5] = CSE-HRP, test compound without co-corrector, read-out: EC50 (without co-corrector)
[6] = CSE-HRP, with co-corrector (2 μM of 3-[(2R,4R)-4-({[1-(2,2-difluoro-1,3-benzodioxol-5-yl)cyclopropyl]carbonyl}amino)-7-methoxy-3,4-dihydro-2H-chromen-2-yl]benzoic acid), read-out: EC50 (with co-corrector)
[7] = CSE-HRP, with co-corrector (2 μM), maximum at any tested concentration, normalized to on-plate positive control
[8] = CSE-HRP, without co-corrector, maximum at any tested concentration, normalized to on-plate positive control
[9] = with co-corrector (2 μM), maximum at any tested concentration, normalized to on-plate positive control
[10] = without co-corrector, maximum at any tested concentration, normalized to on-plate positive control

T1 sequence (P13569 with tags, fused parts or gaps DEL508-508): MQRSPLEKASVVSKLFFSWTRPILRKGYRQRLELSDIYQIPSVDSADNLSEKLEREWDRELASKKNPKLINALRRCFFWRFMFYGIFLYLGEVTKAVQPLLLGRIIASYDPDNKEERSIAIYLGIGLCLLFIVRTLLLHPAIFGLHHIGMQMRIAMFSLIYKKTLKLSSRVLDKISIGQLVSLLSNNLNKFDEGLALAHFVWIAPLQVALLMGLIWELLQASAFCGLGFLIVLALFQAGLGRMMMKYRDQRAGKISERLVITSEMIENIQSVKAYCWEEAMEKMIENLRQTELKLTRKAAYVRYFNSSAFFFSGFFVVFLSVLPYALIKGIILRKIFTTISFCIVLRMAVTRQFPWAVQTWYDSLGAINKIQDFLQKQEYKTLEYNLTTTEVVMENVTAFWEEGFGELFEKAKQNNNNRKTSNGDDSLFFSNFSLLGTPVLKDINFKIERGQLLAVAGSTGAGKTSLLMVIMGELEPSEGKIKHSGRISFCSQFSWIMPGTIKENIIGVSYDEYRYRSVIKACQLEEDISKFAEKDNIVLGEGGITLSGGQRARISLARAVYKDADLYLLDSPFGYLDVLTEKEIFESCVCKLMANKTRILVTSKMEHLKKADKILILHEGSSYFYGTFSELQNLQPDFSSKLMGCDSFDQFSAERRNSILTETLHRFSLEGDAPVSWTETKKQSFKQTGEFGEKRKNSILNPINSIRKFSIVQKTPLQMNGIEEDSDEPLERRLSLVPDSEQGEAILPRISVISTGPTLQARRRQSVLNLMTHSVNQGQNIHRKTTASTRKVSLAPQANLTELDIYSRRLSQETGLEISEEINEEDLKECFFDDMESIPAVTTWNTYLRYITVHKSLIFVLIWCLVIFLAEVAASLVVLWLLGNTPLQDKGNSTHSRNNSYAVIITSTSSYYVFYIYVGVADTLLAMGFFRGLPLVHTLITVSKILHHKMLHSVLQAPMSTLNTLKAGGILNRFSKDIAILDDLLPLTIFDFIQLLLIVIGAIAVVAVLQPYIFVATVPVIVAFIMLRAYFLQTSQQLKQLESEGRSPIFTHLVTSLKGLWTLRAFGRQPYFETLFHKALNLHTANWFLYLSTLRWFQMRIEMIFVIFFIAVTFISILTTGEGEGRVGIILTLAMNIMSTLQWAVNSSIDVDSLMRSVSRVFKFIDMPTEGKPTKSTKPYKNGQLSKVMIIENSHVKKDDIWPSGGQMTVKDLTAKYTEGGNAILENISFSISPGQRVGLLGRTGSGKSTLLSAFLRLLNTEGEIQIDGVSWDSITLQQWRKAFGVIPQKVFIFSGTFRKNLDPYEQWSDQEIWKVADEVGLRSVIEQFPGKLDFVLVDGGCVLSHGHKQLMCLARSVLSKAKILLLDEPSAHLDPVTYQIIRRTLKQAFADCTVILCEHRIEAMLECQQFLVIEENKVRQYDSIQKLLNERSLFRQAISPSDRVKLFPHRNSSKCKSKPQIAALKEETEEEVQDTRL

| SMILES | Emax [1] [%] | EC50 [2] [µM] | Maximum % activity (with co-corrector) [3] | EC50 [4] [µM] | Maximum % activity (with co-corrector) [9] | further results |
| --- | --- | --- | --- | --- | --- | --- |
| COc1ccc(F)cc1CN[C@@H]1[C@@H](C(C)(C)C)[C@H](C(=O)O)N(C(=O)OC(C)C)[C@@H]1c1ccccc1 (racemic) [II-42] | – | – | – | – | – | EC50 [5]: 1 to 10 µM; EC50 [6]: 1 to 10 µM; Maximum % activity (with co-corrector) [7]: +++ (≥350); Emax [8]: 100 to 200% |
| COc1cc(F)ccc1CN[C@H]1[C@H](C(C)(C)C)[C@@H](C(=O)O)N(C(=O)C2CCCCC2)[C@H]1c1ccccc1 [II-118] | – | – | – | – | – | EC50 [5]: 1 to 10 µM; EC50 [6]: 1 to 10 µM; Maximum % activity (with co-corrector) [7]: +++ (≥350); Emax [8]: 100 to 200% |
| COc1ccc(C(C)(C)C)cc1CN[C@H]1[C@H](C(C)(C)C)[C@@H](C(=O)O)N(C(=O)c2cnn3ccccc23)[C@H]1c1ccccc1 [Example I-143] | – | 1 to 10 | – | 1 to 10 | +++ (≥350) | Emax [10]: < 100% |
| COc1ccc(C(C)(C)C)cc1CN[C@H]1[C@H](C(C)(C)C)[C@@H](C(=O)O)N(C(=O)c2ccc3c(c2)OCCO3)[C@H]1c1cccnc1N(C)C [Example I-199] | – | 1 to 10 | – | 1 to 10 | +++ (≥350) | Emax [10]: 100 to 200% |
| COc1ncc(C2CCC2)cc1CN[C@H]1[C@H](C(C)(C)C)[C@@H](C(=O)O)N(C(=O)C2CCCCC2)[C@H]1c1cccnc1OC [Example I-237] | – | 1 to 10 | – | 1 to 10 | +++ (≥350) | Emax [10]: 100 to 200% |
| COc1ncc(Cc2cccc(C#N)c2)cc1CN[C@H]1[C@H](C(C)(C)C)[C@@H](C(=O)O)N(C(=O)C2CCCCC2)[C@H]1c1ccccc1 [Example I-77] | – | 1 to 10 | – | 1 to 10 | +++ (≥350) | Emax [10]: 100 to 200% |
| COc1cccc([C@@H]2[C@H](NCc3ccccc3OC(F)F)[C@@H](C(C)(C)C)[C@H](C(=O)O)N2C(=O)C2CCCCO2)n1 (mixture of isomers) [Example I-18] | – | 1 to 10 | – | 1 to 10 | +++ (≥350) | Emax [10]: < 100% |
| COc1ncc(C(F)(F)F)cc1CN[C@H]1[C@H](C(C)(C)C)[C@@H](C(=O)O)N(C(=O)C2CCCCC2)[C@H]1c1cccc2c1OC(C)(C)C2 [Example 118, (2S,3S,4S,5S)-3-tert-butyl-1-(cyclohexanecarbonyl)-5-(2,2-dimethyl-2,3-dihydro-1-benzofuran-7-yl)-4-({[2-methoxy-5-(trifluoromethyl)pyridin-3-yl]methyl}amino)pyrrolidine-2-carboxylic acid] | – | < 1 | – | < 1 | +++ (≥350) | Emax [10]: 100 to 200% |
| COc1ccc(C(C)(C)C)cc1CN[C@H]1[C@H](C23CC(C2)C3)[C@@H](C(=O)O)N(C(=O)C2CCCCC2)[C@H]1c1ccccc1 [Example I-202] | – | 1 to 10 | – | < 1 | +++ (≥350) | Emax [10]: > 200% |
| COc1ncc(C(F)(F)F)cc1CN[C@H]1[C@H](C(C)(C)C)[C@@H](C(=O)O)N(C(=O)C2CCCCC2)[C@H]1c1ccccc1C [Example I-258] | – | – | – | – | – | EC50 [5]: < 1 µM; EC50 [6]: < 1 µM; Maximum % activity (with co-corrector) [7]: +++ (≥350); Emax [8]: 100 to 200% |
| COc1ccc(-c2cccnc2OC)cc1CN[C@H]1[C@H](C(C)(C)C)[C@@H](C(=O)O)N(C(=O)C2CCCCC2)[C@H]1c1ccccc1 [II-250] | – | – | – | – | – | EC50 [5]: 1 to 10 µM; EC50 [6]: 1 to 10 µM; Maximum % activity (with co-corrector) [7]: +++ (≥350); Emax [8]: 100 to 200% |
| COc1ccc(-c2cnccc2C)cc1CN[C@H]1[C@H](C(C)(C)C)[C@@H](C(=O)O)N(C(=O)C2CCCCC2)[C@H]1c1ccccc1 [II-280] | – | – | – | – | – | EC50 [5]: 1 to 10 µM; EC50 [6]: 1 to 10 µM; Maximum % activity (with co-corrector) [7]: +++ (≥350); Emax [8]: < 100% |
| COc1ccc(C(C)(C)C)cc1CN[C@H]1[C@H](C(C)(C)C)[C@@H](C(=O)O)N(C(=O)C(C)CC(F)(F)F)[C@H]1c1ccccc1 (some centres unmarked) [II-304] | – | – | – | – | – | EC50 [5]: 1 to 10 µM; EC50 [6]: 1 to 10 µM; Maximum % activity (with co-corrector) [7]: +++ (≥350); Emax [8]: > 200% |
| COc1ccc(C(C)(C)C)cc1CN[C@H]1[C@H](C(C)(C)C)[C@@H](C(=O)O)N(C(=O)[C@H]2CCCCO2)[C@H]1c1cccnc1N(C)C [Example 19, (2S,3S,4S,5S)-3-tert-butyl-4-{[(5-tert-butyl-2-methoxyphenyl)methyl]amino}-5-[2-(dimethylamino)pyridin-3-yl]-1-[(2R)-oxane-2-carbonyl]pyrrolidine-2-carboxylic acid] | – | 1 to 10 | – | 1 to 10 | +++ (≥350) | Emax [10]: > 200% |

Second part, led by results:

| Emax [1] [%] | EC50 [2] [µM] | Maximum % activity (with co-corrector) [3] | EC50 [4] [µM] | Maximum % activity (with co-corrector) [9] | SMILES | further results |
| --- | --- | --- | --- | --- | --- | --- |
| > 200 | 1 to 10 | +++ (≥350) | 1 to 10 | – | COc1ccc(Cl)cc1CN[C@H]1[C@H](C(C)(C)C)[C@@H](C(=O)O)N(C(=O)OC(C)C)[C@H]1c1ccccc1C(C)C [II-567] | – |
| 100 to 200 | 1 to 10 | +++ (≥350) | 1 to 10 | – | COc1cccc([C@@H]2[C@H](NCc3ccc(Cl)cc3OC)[C@@H](C(C)(C)C)[C@H](C(=O)O)N2C(=O)C2CCCCC2)n1 (racemic) [III-67] | – |
| 100 to 200 | 1 to 10 | +++ (≥350) | 1 to 10 | – | CC(C)(C)[C@H]1[C@H](NCC2(c3ccc4c(c3)OC(F)(F)O4)CC2)[C@H](c2ccccc2)N(C(=O)C2CCCCC2)[C@@H]1C(=O)O [II-499] | – |
| 100 to 200 | 1 to 10 | +++ (≥350) | 1 to 10 | – | COc1ccc(C(C)(C)C)cc1CN[C@H]1[C@H](C(C)(C)C)[C@@H](C(=O)O)N(C(=O)C2CCC(F)(F)CC2)[C@H]1c1ccccc1 [II-377] | – |
| < 100 | > 10 | – | 1 to 10 | ++ (≥150 and <350) | CC(C)(C)[C@H]1[C@H](NCc2ccc(C(F)(F)F)cc2)[C@H](c2ccccc2)N(C(=O)C2CCCCC2)[C@@H]1C(=O)O [III-138] | – |
| < 100 | 1 to 10 | +++ (≥350) | < 1 | – | COc1ncc(C(F)(F)F)cc1CN[C@H]1[C@H](C(C)(C)C)[C@@H](C(=O)O)N(C(=O)[C@H]2CC[C@@H](c3ccccc3)O2)[C@H]1c1ccccc1 (relative stereo) [II-426] | – |
| < 100 | > 10 | – | 1 to 10 | ++ (≥150 and <350) | COc1ccc(Cl)cc1CN[C@@H]1[C@@H](C(C)(C)C)[C@H](C(=O)O)N(C(=O)[C@H](OC)c2ccccc2)[C@@H]1c1ccccc1N(C)C [III-99] | – |
| < 100 | 1 to 10 | ++ (≥150 and <350) | 1 to 10 | – | COc1ccc(C(C)(C)C)cc1CN[C@H]1[C@H](C(C)(C)C)[C@@H](C(=O)O)N(C(=O)[C@@H](C)c2ccccc2)[C@H]1c1cccnc1OC [II-539] | – |
| 100 to 200 | 1 to 10 | +++ (≥350) | 1 to 10 | – | COc1ccc(C(C)(C)C)cc1CN[C@H]1[C@H](C(C)(C)C)[C@@H](C(=O)O)N(C(=O)C2CC(F)(F)C2)[C@H]1c1ccccc1 [II-336] | – |
| > 200 | 1 to 10 | – | < 1 | +++ (≥350) | COc1ccc(C(C)(C)C)cc1CN[C@H]1[C@H](C(C)(C)C)[C@@H](C(=O)O)N(C(=O)C2CCCCC2C)[C@H]1c1cccnc1N(C)C (some centres unmarked) [III-205] | – |
| 100 to 200 | 1 to 10 | +++ (≥350) | < 1 | – | COc1ncc(-c2ccc(F)cc2F)cc1CN[C@H]1[C@H](C(C)(C)C)[C@@H](C(=O)O)N(C(=O)C2CCCCC2)[C@H]1c1ccccc1 [II-344] | – |
| > 200 | 1 to 10 | +++ (≥350) | < 1 | – | COc1ccc(C(C)(C)C)cc1CN[C@H]1[C@H](C(C)(C)C)[C@@H](C(=O)O)N(C(=O)c2cnn(-c3ccccc3)c2C)[C@H]1c1ccccc1 [II-361] | – |
| < 100 | 1 to 10 | +++ (≥350) | 1 to 10 | – | COc1ccccc1CN[C@@H]1[C@@H](C(C)(C)C)[C@H](C(=O)O)N(C(=O)C2CCCCC2)[C@@H]1c1ccccc1 (racemic) [III-12] | – |
| > 200 | < 1 | – | < 1 | +++ (≥350) | COc1ccc(C23CC(C2)C3)cc1CN[C@H]1[C@H](C(C)(C)C)[C@@H](C(=O)O)N(C(=O)C2CCCCC2)[C@H]1c1ccccc1 [III-202] | – |
| – | > 10 | – | < 1 | – | COc1ccc(C(C)(C)C)cc1CN[C@H]1[C@H](C(C)(C)C)[C@@H](C(=O)O)N(C(=O)C2CCc3ccc(F)cc3O2)[C@H]1c1cccnc1N(C)C (single isomer, unassigned) [II-453] | Maximum % activity (without co-corrector) [1]: + (<100); Maximum % activity (with co-corrector) (with co-corrector (2 μM of 3-[(2R,4R)-4-({[1-(2,2-difluoro-1,3-benzodioxol-5-yl)cyclopropyl]carbonyl}amino)-7-methoxy-3,4-dihydro-2H-chromen-2-yl]benzoic acid), maximum at any tested concentration, normalized to on-plate positive control, 2 µM): ++ (≥150 and <350) |
